According to publication PMC7105882, “Plasmodium Perforin-Like Protein Pores on the Host Cell Membrane Contribute in Its Multistage Growth and Erythrocyte Senescence” (Frontiers in Cellular and Infection Microbiology, 2020):

Biological target: T1, PfPLP2 (rPMD2, pan-MACPF domain of perforin-like protein 2) (Plasmodium falciparum, UniProt Q8I5P0)
T1 construct: gene PF3D7_1216700; rPMD2, recombinant His-tagged MACPF domain of PfPLP2
Assay: inhibition of erythrocyte lysis by purified rPMD2; thermal protection of purified rPMD2 (modified CETSA)
Format: biochemical

T1 sequence (Q8I5P0 entry or part of it): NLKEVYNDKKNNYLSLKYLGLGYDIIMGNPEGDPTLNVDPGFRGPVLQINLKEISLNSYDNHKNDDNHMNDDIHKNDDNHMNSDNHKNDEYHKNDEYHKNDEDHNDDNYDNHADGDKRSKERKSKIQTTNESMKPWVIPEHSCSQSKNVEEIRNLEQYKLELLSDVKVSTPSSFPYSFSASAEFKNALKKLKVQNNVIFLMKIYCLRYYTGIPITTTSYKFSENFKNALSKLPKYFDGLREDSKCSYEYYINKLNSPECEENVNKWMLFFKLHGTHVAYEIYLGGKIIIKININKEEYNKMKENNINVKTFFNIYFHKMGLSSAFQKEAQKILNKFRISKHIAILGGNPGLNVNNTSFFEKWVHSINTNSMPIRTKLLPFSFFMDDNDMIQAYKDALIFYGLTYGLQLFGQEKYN

SMILES | inhibition of erythrocyte lysis by purified rPMD2; thermal protection of purifie
O=C1NC(=S)N/C1=C\c1csc2ccccc12 [C02, (Z)-5-(benzo[b]thiophen-3-ylmethylene)-2-thioxoimidazolidin-4-one] | C01 and C02 could inhibit the activity of both rPMD1 and rPMD2 in the sub-micromolar range
Cn1cc(/C=C2\NC(=S)NC2=O)c2ccccc21 [C01, (Z)-5-((1-methyl-1H-indol-3-yl)methylene)-2-thioxoimidazolidin-4-one] | C01 and C02 could inhibit the activity of both rPMD1 and rPMD2 in the sub-micromolar range
